Measurements: ChEMBL document CHEMBL5543167, “Design, Synthesis, and Biological Evaluation of Novel EGFR PROTACs Targeting C797S Mutation” (J Med Chem, 2024)
Calls of active or inactive are those of the source. No cut-off for these calls is given here.

Assays:
[1] = target: Epidermal growth factor receptor (Homo sapiens, UniProt P00533, C797S/L858R/T790M); test: Binding affinity to EGFR L858R/T790M/C797S mutant (unknown origin) assessed as dissociation constant incubated for 10 mins under dark condition by MST analysis
[2] = tested on: Protein cereblon/Epidermal growth factor receptor (Homo sapiens), P00533+Q96SW2 [L858R,T790M,C797S]; test: PROTAC activity at CRBN/EGFR L858R/T790M/C797S mutant in human H1975-TM cells assessed as induction of EGFR degradation by measuring remaining activity at 1.2 nM incubated for 24 hrs by Western blot analysis (reference value: 100%); type: cell-based
[3] = tested on: Protein cereblon/Epidermal growth factor receptor (Homo sapiens), P00533+Q96SW2 [L858R,T790M,C797S]; test: PROTAC activity at CRBN/EGFR L858R/T790M/C797S mutant in human H1975-TM cells assessed as induction of EGFR degradation by measuring remaining activity at 300 nM incubated for 24 hrs by Western blot analysis (reference value: 100%); type: cell-based
[4] = tested on: Protein cereblon/Epidermal growth factor receptor (Homo sapiens), P00533+Q96SW2 [L858R,T790M,C797S]; test: PROTAC activity at CRBN/EGFR L858R/T790M/C797S mutant in human H1975-TM cells assessed as induction of EGFR degradation by measuring remaining activity at 100 nM incubated for 12 hrs by Western blot analysis (reference value: 100%); type: cell-based
[5] = tested on: Protein cereblon/Epidermal growth factor receptor (Homo sapiens), P00533+Q96SW2 [L858R,T790M,C797S]; test: PROTAC activity at CRBN/EGFR L858R/T790M/C797S mutant in human H1975-TM cells assessed as induction of EGFR degradation by measuring remaining activity at 100 nM preincubated for 24 hrs followed by compound washout and measured after 3 hrs by Western blot analysis (reference value: 100%); type: cell-based
[6] = tested on: Protein cereblon/Epidermal growth factor receptor (Homo sapiens), P00533+Q96SW2 [L858R,T790M,C797S]; test: PROTAC activity at CRBN/EGFR L858R/T790M/C797S mutant in human H1975-TM cells assessed as induction of EGFR degradation by measuring remaining activity at 100 nM preincubated for 24 hrs followed by compound washout and measured after 12 hrs by Western blot analysis (reference value: 100%); type: cell-based
[7] = tested on: Protein cereblon/Epidermal growth factor receptor (Homo sapiens), P00533+Q96SW2 [L858R,T790M,C797S]; test: (§1) PROTAC activity at CRBN/EGFR L858R/T790M/C797S mutant in human H1975-TM cells assessed as induction of EGFR degradation by measuring remaining activity at 100 nM preincubated for 24 hrs followed by compound washout and measured after 24 hrs by Western blot analysis (reference value: 100%); type: cell-based
[8] = tested on: Protein cereblon/Epidermal growth factor receptor (Homo sapiens), P00533+Q96SW2 [L858R,T790M,C797S]; test: PROTAC activity at CRBN/EGFR L858R/T790M/C797S mutant in human H1975-TM cells assessed as induction of EGFR degradation by measuring remaining activity at 100 nM preincubated for 24 hrs followed by compound washout and measured after 48 hrs by Western blot analysis (reference value: 100%); type: cell-based
[9] = tested on: Protein cereblon/Epidermal growth factor receptor (Homo sapiens), P00533+Q96SW2 [L858R,T790M,C797S]; test: as §1, with “at 50” for “at 100”, “preincubated with lenalidomide” for “preincubated”, “for 6” for “for 24”, “compound addition” for “compound washout”; type: cell-based
[10] = tested on: Protein cereblon/Epidermal growth factor receptor (Homo sapiens), P00533+Q96SW2 [L858R,T790M]; test: PROTAC activity at CRBN/EGFR L858R/T790M mutant in human NCI-H1975 cells assessed as induction of EGFR degradation incubated for 24 hrs by Western blot analysis; type: cell-based
[11] = target: Protein cereblon/Epidermal growth factor receptor (Homo sapiens, UniProt P00533+Q96SW2); test: PROTAC activity at CRBN/wildtype EGFR in human A549 cells assessed as induction of EGFR degradation incubated for 24 hrs by Western blot analysis; type: cell-based
NCI-H1975 = test: Antiproliferative activity against human NCI-H1975 cells harboring EGFR L858R/T790M mutant assessed as inhibition of cell proliferation incubated for 72 hrs by CCK8 assay; type: functional, cell-based; conditions: NCI-H1975, 72 h
A549 = test: Antiproliferative activity against human A549 cells harboring wildtype EGFR assessed as inhibition of cell proliferation incubated for 72 hrs by CCK8 assay; type: functional, cell-based; conditions: A549, 72 h
[12] = target: Sodium-coupled neutral amino acid symporter 2 (Homo sapiens) (UniProt Q96QD8); test: Induction of SLC38A2 degradation in human H1975-TM cells at 50 nM incubated for 24 hrs; type: cell-based
Sequence of Sodium-coupled neutral amino acid symporter 2 (Homo sapiens) (Q96QD8 whole entry): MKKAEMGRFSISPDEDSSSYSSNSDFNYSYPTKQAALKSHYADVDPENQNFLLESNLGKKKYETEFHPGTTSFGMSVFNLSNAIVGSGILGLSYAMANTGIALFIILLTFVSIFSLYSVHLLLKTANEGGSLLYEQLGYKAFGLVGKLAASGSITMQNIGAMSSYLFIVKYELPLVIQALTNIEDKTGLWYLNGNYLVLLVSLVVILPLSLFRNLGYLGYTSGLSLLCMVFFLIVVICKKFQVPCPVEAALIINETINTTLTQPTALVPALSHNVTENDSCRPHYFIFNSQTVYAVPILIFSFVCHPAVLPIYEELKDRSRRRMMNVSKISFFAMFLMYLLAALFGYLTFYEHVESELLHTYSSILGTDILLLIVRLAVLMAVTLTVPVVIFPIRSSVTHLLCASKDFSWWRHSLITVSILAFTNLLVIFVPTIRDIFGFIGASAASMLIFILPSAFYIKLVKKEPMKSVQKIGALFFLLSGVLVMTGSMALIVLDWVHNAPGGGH

[13] = target: Hepatocyte growth factor receptor (Homo sapiens) (UniProt P08581); test: Induction of MET degradation in human H1975-TM cells at 50 nM incubated for 24 hrs; type: cell-based
Sequence of Hepatocyte growth factor receptor (Homo sapiens) (P08581 whole entry): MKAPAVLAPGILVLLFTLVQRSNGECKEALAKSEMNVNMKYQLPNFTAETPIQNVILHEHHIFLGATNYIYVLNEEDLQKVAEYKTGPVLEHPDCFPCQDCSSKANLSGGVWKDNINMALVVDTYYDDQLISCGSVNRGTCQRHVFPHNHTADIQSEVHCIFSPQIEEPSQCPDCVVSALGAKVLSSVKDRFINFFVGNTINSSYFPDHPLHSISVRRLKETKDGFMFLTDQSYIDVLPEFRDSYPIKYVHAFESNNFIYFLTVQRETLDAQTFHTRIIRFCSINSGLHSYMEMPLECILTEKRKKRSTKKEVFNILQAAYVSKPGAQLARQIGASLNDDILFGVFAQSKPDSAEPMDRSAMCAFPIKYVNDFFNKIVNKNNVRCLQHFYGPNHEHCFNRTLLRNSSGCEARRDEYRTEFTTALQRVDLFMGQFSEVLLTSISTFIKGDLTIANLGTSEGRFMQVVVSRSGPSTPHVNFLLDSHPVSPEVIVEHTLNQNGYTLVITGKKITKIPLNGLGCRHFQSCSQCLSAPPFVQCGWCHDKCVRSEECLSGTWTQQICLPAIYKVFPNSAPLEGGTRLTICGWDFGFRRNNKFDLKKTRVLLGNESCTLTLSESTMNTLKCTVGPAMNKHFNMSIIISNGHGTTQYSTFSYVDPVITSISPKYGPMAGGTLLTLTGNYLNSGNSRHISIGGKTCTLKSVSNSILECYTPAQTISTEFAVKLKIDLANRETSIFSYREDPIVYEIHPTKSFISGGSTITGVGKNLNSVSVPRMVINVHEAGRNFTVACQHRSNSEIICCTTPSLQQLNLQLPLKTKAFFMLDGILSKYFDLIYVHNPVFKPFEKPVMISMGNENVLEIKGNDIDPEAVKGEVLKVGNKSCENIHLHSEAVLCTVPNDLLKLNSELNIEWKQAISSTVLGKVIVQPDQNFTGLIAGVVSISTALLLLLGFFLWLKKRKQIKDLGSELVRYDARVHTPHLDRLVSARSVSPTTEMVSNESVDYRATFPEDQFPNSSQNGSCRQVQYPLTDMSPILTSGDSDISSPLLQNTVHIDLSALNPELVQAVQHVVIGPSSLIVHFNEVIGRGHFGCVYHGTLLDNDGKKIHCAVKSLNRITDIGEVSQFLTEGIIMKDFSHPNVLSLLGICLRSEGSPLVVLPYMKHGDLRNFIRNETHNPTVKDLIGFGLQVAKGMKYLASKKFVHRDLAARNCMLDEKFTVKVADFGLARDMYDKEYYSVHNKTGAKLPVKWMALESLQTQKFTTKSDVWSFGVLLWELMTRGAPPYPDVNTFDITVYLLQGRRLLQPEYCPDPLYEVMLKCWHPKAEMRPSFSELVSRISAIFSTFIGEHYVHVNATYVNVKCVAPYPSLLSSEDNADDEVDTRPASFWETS

[14] = Inhibition of colony formation in human H1975-TM cells harboring EGFR L858R/T790M/C797S mutant at 33 nM incubated for 14 days by crystal violet staining based analysis relative to control; type: functional; conditions: 336 h, time 14 day
H1975-TM = test: Induction of apoptosis in human H1975-TM cells harboring EGFR L858R/T790M/C797S mutant incubated for 24 hrs by Annexin V-FITC/PI staining based flow cytometric analysis; type: functional, cell-based; conditions: dose 33-100 nM
[15] = target: Epidermal growth factor receptor (Homo sapiens) (UniProt P00533); test: Inhibition of EGFR signaling in human H1975-TM cells harboring EGFR L858R/T790M/C797S mutant assessed as reduction in ERK activation by Western blot analysis; type: cell-based; conditions: dose 1.2-300 nM
[16] = Antitumor activity against human H1975-TM cells xenografted in BALB/c nude mouse assessed as tumor growth inhibition at 25 mg/kg, po administered once daily for 31 days relative to control; type: functional; conditions: 744 h, time 31 day, read-out: TGI
[17] = Antitumor activity against human H1975-TM cells xenografted in BALB/c nude mouse assessed as tumor growth inhibition at 100 mg/kg, po administered once daily for 31 days relative to control; type: functional; conditions: 744 h, time 31 day, read-out: TGI
Mus musculus = test: In vivo inhibition of EGFR signaling in BALB/c nude mouse xenografted with human […] cells assessed as reduction in EGFR phosphorylation at 25 to 100 mg/kg, po administered once daily for 31 days by Western blot analysis; type: functional, organism-based; conditions: dose 25-100 mg/kg, time 31.0 day
[18] = Toxicity in BALB/c nude mouse xenografted with human H1975-TM cells assessed as heart lesions at 25 to 100 mg/kg, po administered once daily for 31 days by Hematoxylin and eosin staining based analysis; type: organism-based; conditions: in vivo, 744 h, dose 25-100 mg/kg, time 31 day
[19] = MRT (0 to infinity) in male Sprague-Dawley rat at 5 mg/kg, iv measured after 24 hrs by LC-MS/MS analysis; type: ADME, organism-based; conditions: in vivo
[20] = Tmax in male Sprague-Dawley rat at 5 mg/kg, iv measured after 24 hrs by LC-MS/MS analysis; type: ADME, organism-based; conditions: in vivo
[21] = Cmax in male Sprague-Dawley rat at 50 mg/kg, po measured after 24 hrs by LC-MS/MS analysis; type: ADME, organism-based; conditions: in vivo
[22] = Tmax in male Sprague-Dawley rat at 50 mg/kg, po measured after 24 hrs by LC-MS/MS analysis; type: ADME, organism-based; conditions: in vivo
[23] = Half-life in male Sprague-Dawley rat at 50 mg/kg, po measured after 24 hrs by LC-MS/MS analysis; type: ADME, organism-based; conditions: in vivo
[24] = Oral bioavailability in Sprague-Dawley rat at 50 mg/kg measured after 24 hrs by LC-MS/MS analysis; type: ADME, organism-based; conditions: in vivo

CCS(=O)(=O)n1cc(-c2nc(Nc3ccc(N4CCN(CCCCCCC(=O)Nc5cccc6c5CN(C5CCC(=O)NC5=O)C6=O)CC4)cc3)ncc2C(F)(F)F)c2ccccc21 (stereo not drawn)
Kd [1]: 240 nM | Activity [2]: 107% | Activity [3]: 0.1% | Activity [4]: 44.5% | Activity [5]: 8.5% | Activity [6]: 49.7% | Activity [7]: 52.9% | Activity [8]: 66.6% | Activity [9]: 56.4% | Activity [10]: Dose-Dependent Effect | DC50 [11]: > 300 nM | IC50 (NCI-H1975): 46.2 nM | IC50 (A549): 97.5 nM | Activity [12]: Active | Activity [13]: Active | inhibition at 0.033 µM [14]: ~100% | Activity (H1975-TM): Dose-Dependent Effect | inhibition [15]: Dose-Dependent Effect | inhibition in vivo at 25 mg/kg [16]: 48.1% | inhibition in vivo at 100 mg/kg [17]: 66.4% | inhibition (Mus musculus): Active | Activity [18]: Non-Toxic | MRT inf [19]: 18.4 h | Tmax [20]: 4.8 min | Cmax [21]: 57.8 ng/mL | Tmax [22]: 5.7 h | half-life [23]: 10.9 h | bioavailability [24]: 4.2%
